Laboratory results published in ChEMBL document CHEMBL1158622, “Discovery of a series of indan carboxylic acid glycogen phosphorylase inhibitors” (Bioorg Med Chem Lett, 2010).
Where “and” joins values, the source holds several entries; their conditions need not be identical. Equal entries are not always repeated.

How the values were obtained:
[1] = (§1) Oral bioavailability in rat at 5 mg/kg oral & 2 mg/kg iv dose; format: ADME, organism-based; conditions: in vivo
[2] = target: T1, Glycogen phosphorylase, liver form (Homo sapiens, UniProt P06737); assay: Inhibition of human recombinant liver glycogen phosphorylase by multienzyme-coupled reaction
T1 sequence (P06737 whole entry): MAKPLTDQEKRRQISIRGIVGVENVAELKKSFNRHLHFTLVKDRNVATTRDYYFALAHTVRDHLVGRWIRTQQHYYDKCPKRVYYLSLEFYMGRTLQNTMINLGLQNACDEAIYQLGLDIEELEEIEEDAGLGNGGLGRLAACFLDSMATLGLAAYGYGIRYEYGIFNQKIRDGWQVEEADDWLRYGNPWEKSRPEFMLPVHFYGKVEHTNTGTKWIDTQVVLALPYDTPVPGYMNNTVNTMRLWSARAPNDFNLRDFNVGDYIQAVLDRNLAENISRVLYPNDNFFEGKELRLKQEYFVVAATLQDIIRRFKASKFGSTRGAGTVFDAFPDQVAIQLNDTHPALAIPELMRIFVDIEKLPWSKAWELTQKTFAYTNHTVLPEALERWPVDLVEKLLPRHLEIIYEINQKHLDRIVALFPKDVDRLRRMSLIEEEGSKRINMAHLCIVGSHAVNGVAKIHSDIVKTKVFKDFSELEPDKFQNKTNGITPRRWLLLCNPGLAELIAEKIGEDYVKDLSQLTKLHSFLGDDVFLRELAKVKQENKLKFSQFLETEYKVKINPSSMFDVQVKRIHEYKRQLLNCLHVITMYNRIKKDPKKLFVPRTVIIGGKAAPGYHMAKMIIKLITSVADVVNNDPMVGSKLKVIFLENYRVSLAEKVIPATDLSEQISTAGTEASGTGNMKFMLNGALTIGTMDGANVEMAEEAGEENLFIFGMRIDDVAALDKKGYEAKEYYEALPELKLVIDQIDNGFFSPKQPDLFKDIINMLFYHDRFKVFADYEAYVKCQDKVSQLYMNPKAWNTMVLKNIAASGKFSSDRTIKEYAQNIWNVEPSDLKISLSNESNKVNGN

[3] = Half life in male Wistar rats at 4.3 - 4.9 umol/kg iv dose (11 - 12.2 umol/kg oral); format: ADME, organism-based; conditions: rat, in vivo
Rattus norvegicus [4] = assay: as §1; format: ADME, organism-based; conditions: in vivo
[5] = Oral bioavailability in male Wistar rats at 11 - 12.2 umol/kg oral & 4.3 - 4.9 umol/kg iv dose; format: ADME, organism-based; conditions: rat, in vivo
CYP2D6 = CYP2D6 (Homo sapiens, UniProt P10635); assay: Inhibition of CYP2D6 at 10 uM; format: ADME
CYP1A2 = target: T2, CYP1A2 (Homo sapiens, UniProt P05177); assay: Inhibition of CYP1A2 at 10 uM; format: ADME
T2 sequence (P05177 whole entry): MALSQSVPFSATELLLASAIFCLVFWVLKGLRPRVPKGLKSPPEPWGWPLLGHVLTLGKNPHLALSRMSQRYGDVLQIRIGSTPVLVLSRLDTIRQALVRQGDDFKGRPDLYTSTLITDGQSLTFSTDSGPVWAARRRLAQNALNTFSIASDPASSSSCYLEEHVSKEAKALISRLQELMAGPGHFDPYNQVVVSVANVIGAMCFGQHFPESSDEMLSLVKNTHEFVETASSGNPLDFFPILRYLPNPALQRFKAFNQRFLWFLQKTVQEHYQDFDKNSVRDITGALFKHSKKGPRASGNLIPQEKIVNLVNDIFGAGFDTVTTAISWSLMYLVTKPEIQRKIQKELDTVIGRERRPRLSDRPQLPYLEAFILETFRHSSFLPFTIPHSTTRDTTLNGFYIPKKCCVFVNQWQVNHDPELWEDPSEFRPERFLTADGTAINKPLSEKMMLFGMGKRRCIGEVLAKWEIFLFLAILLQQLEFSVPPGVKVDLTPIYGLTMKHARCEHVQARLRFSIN

Rattus norvegicus [6] = assay: Antihyperglycemic activity in Zucker fa/fa rat assessed as reduction in glucose level at 17 umol/kg dosed 45 mins prior to glucagon challenge measured after 90 mins; format: functional; parameters: scale not given: the % may be the effect or the level left
[7] = Clearance in Wistar rat at […], iv and 11 to 12.2 umol/kg, po; format: ADME, organism-based; conditions: in vivo
CYP3A4 = CYP3A4 (Homo sapiens, UniProt P08684); assay: Inhibition of […] at 10 uM; format: ADME
CYP2C9 = CYP2C9 (Homo sapiens, UniProt P11712); assay: Inhibition of CYP2C9 at 10 uM; format: ADME
[8] = Volume of distribution in Wistar rat at […], iv and 11 to 12.2 umol/kg, po; format: ADME, organism-based; conditions: in vivo
CYP2C19 = CYP2C19 (Homo sapiens, UniProt P33261); assay: Inhibition of CYP2C19 at 10 uM; format: ADME
[9] = target: Voltage-gated inwardly rectifying potassium channel KCNH2 (Homo sapiens, UniProt Q12809)
Rattus norvegicus [10] = species: Rattus norvegicus; assay: Free plasma concentration in rat; format: ADME, organism-based; conditions: in vivo

Sequence of CYP3A4 (P08684 whole entry): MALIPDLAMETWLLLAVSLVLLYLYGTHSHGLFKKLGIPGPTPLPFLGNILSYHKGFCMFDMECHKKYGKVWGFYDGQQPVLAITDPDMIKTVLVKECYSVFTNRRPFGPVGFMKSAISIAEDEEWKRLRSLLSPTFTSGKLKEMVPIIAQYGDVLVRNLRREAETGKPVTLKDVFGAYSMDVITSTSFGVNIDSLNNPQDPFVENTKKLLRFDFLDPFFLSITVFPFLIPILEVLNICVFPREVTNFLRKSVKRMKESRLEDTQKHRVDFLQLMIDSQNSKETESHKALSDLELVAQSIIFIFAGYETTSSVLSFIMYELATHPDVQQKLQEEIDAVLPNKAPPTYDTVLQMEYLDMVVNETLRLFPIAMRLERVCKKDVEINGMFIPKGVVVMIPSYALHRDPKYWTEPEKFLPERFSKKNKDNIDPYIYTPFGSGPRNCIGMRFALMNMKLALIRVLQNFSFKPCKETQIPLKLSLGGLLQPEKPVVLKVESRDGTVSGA
Sequence of CYP2D6 (P10635 whole entry): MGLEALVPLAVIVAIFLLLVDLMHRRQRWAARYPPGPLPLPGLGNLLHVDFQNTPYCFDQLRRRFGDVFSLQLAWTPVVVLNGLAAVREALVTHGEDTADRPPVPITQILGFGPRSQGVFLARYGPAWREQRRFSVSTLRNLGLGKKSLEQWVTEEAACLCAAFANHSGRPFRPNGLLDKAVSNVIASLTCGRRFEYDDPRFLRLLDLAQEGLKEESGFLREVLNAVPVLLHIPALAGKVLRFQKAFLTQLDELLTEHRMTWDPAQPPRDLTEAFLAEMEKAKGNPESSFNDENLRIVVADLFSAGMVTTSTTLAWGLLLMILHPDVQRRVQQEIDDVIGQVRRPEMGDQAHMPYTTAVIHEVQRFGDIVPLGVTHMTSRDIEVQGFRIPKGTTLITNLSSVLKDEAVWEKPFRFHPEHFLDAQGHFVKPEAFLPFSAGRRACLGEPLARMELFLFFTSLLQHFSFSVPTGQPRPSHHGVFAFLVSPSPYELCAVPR
Sequence of CYP2C9 (P11712 whole entry): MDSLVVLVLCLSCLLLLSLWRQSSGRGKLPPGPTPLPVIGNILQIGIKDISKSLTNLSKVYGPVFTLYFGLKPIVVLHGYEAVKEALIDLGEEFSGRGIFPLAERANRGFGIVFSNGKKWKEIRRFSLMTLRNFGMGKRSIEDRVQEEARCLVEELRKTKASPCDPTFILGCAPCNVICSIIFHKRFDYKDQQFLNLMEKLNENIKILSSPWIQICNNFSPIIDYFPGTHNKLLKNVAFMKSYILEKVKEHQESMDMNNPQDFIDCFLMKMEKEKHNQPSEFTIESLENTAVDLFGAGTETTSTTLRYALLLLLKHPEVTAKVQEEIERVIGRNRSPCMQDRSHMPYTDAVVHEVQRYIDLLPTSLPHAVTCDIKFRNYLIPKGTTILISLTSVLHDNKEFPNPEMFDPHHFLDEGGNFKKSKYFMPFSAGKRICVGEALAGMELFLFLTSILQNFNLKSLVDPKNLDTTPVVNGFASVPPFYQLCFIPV
Sequence of CYP2C19 (P33261 whole entry): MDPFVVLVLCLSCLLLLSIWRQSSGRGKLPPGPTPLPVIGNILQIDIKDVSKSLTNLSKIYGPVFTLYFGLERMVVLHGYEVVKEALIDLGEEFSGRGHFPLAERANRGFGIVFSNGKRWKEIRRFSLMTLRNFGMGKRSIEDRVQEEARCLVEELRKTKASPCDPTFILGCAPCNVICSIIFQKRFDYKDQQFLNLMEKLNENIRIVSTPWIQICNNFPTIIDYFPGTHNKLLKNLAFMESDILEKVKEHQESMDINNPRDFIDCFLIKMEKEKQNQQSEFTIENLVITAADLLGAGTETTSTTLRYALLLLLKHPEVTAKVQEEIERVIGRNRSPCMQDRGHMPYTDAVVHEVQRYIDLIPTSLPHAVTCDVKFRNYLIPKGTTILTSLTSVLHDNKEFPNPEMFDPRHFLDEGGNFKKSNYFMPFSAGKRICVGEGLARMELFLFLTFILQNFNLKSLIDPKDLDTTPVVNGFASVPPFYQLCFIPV
Sequence of Voltage-gated inwardly rectifying potassium channel KCNH2 (Q12809 whole entry): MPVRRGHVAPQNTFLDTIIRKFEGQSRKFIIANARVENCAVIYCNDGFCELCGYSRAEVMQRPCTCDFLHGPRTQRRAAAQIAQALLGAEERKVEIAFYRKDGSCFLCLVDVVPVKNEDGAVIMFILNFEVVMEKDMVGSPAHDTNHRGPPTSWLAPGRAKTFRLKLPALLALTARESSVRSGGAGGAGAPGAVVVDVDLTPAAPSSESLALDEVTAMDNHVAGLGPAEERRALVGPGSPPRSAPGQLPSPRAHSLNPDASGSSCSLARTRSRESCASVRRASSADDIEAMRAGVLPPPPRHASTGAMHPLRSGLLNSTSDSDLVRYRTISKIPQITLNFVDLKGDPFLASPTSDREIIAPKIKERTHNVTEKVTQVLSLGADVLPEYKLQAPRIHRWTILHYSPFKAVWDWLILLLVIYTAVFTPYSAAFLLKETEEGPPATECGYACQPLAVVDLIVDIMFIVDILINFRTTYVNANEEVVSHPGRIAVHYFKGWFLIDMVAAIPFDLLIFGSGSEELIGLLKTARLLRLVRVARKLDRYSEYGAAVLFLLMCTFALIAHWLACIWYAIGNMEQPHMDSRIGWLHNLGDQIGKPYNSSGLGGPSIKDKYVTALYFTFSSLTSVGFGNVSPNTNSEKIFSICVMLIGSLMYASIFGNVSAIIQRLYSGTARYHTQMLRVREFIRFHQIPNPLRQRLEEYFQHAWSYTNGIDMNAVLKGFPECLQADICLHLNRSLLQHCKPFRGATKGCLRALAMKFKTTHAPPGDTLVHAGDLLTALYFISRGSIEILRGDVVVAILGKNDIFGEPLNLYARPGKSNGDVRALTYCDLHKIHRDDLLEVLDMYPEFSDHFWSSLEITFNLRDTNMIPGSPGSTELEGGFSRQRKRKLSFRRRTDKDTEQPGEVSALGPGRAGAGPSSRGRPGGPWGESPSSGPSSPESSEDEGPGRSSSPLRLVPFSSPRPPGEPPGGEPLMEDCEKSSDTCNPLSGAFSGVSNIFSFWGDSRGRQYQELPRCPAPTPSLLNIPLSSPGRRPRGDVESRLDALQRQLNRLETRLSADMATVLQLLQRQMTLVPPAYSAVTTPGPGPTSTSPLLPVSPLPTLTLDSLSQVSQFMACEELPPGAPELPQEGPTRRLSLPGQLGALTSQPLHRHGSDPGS

Row | Compound | bioavailability [1] | IC50 [2] | further results
1 | O=C(O)CCC[C@@H]1c2ccccc2C[C@H]1NC(=O)c1cc2sc(Cl)c(Cl)c2[nH]1 | 118% | 0.054 µM | 
2 | O=C(O)CC[C@@H]1c2ccccc2C[C@H]1NC(=O)c1cc2sc(Cl)c(Cl)c2[nH]1 | 80% | 0.056 µM | 
3 | O=C(O)C[C@@H]1c2ccccc2C[C@H]1NC(=O)c1cc2cc(Cl)cc(F)c2[nH]1 | 41% | 0.052 µM | 
4 | O=C(O)C[C@@H]1c2ccccc2C[C@H]1NC(=O)c1cc2cc(Cl)sc2[nH]1 | 41% | 0.04 µM | 
5 | O=C(O)C[C@@H]1c2ccccc2C[C@H]1NC(=O)c1cc2cc(F)ccc2[nH]1 | 88% |  | 
6 | O=C(O)CSC[C@@H]1c2ccccc2C[C@H]1NC(=O)c1cc2sc(Cl)c(Cl)c2[nH]1 | 23% | 0.04 µM | 
7 | O=C(O)C[C@H]1c2ccccc2C[C@@H]1NC(=O)c1cc2cc(Cl)sc2[nH]1 |  | 1.2 µM | 
8 | COCC[C@H](C(=O)O)[C@@H]1c2ccccc2C[C@H]1NC(=O)c1cc2sc(Cl)c(Cl)c2[nH]1 [(S)-2-((1R,2R)-2-(2,3-DICHLORO-4H-THIENO[3,2-B]PYRROLE-5-CARBOXAMIDO)-2,3-DIHYDRO-1H-INDEN-1-YL)-4-METHOXYBUTANOIC ACID (DIASTEREOMERIC MIX)] |  |  | half-life [3]: 7 h; F (Rattus norvegicus [4]): 150% and 65%; bioavailability [5]: 118%; inhibition at 10 µM (CYP2D6): < 50%; inhibition at 10 µM (CYP1A2): < 50%; Activity (Rattus norvegicus [6]): 50%; clearance [7]: 0.024 L/h/kg; inhibition at 10 µM (CYP3A4): < 50%; inhibition at 10 µM (CYP2C9): < 50%; Vd [8]: 0.2 L/kg; inhibition at 10 µM (CYP2C19): < 50%
9 | O=C(O)CO[C@@H]1c2ccccc2C[C@H]1NC(=O)c1cc2sc(Cl)c(Cl)c2[nH]1 | 5% | 0.03 µM | 
10 | O=C(O)C[C@@H]1c2ccccc2C[C@H]1NC(=O)c1cc2sc(Cl)c(Cl)c2[nH]1 | 65% | 0.018 µM | half-life [3]: 8 h; bioavailability [5]: 65%; inhibition at 10 µM (CYP2D6): < 50%; inhibition at 10 µM (CYP1A2): < 50%; clearance [7]: 0.0138 L/h/kg; inhibition at 10 µM (CYP3A4): < 50%; IC50 [9]: > 30 µM; inhibition at 10 µM (CYP2C9): < 50%; Vd [8]: 0.2 L/kg; inhibition at 10 µM (CYP2C19): < 50%
11 | O=C(O)CCCS(=O)(=O)C[C@@H]1c2ccccc2C[C@H]1NC(=O)c1cc2sc(Cl)c(Cl)c2[nH]1 | 2% | 0.042 µM | fraction unbound (Rattus norvegicus [10]): 0.3%
12 | O=C(O)C[C@@H]1c2ccccc2C[C@H]1NC(=O)c1cc2cc(Cl)c(F)cc2[nH]1 | 65% | 0.076 µM | 
13 | O=C(O)C[C@@H]1c2ccccc2C[C@H]1NC(=O)c1cc2cc(Cl)ccc2[nH]1 | 77% | 0.057 µM | 
14 | O=C(O)C[C@@H]1c2ccccc2C[C@H]1NC(=O)c1cc2cc(Cl)ncc2[nH]1 | 11% | 0.26 µM | fraction unbound (Rattus norvegicus [10]): 0.01%
15 | O=C(O)C[C@H]1c2ccccc2C[C@@H]1NC(=O)c1cc2sc(Cl)c(Cl)c2[nH]1 |  | 1.5 µM | 
16 | O=C(O)CCO[C@@H]1c2ccccc2C[C@H]1NC(=O)c1cc2sc(Cl)c(Cl)c2[nH]1 | 55% | 0.059 µM | 
17 | O=C(O)CC(=O)N[C@@H]1c2ccccc2C[C@H]1NC(=O)c1cc2sc(Cl)c(Cl)c2[nH]1 | 2% | 0.056 µM | 
